In publication PMC11945486, “TAS1R2/TAS1R3 Single-Nucleotide Polymorphisms Affect Sweet Taste Receptor Activation by Sweeteners: The SWEET Project” (Nutrients, 2025):
Like-named read-outs stand apart in the source and are kept apart here. No end group written: not given here.

T1: human TAS1R2-WT/TAS1R3-M110T (Homo sapiens, UniProt Q7RTX0+Q8TE23, M110T)
T1 construct: expressed in transfected cells; host or cells: HEK293T stably expressing Gα16gust44
T1 sequence (Q8TE23 20-839): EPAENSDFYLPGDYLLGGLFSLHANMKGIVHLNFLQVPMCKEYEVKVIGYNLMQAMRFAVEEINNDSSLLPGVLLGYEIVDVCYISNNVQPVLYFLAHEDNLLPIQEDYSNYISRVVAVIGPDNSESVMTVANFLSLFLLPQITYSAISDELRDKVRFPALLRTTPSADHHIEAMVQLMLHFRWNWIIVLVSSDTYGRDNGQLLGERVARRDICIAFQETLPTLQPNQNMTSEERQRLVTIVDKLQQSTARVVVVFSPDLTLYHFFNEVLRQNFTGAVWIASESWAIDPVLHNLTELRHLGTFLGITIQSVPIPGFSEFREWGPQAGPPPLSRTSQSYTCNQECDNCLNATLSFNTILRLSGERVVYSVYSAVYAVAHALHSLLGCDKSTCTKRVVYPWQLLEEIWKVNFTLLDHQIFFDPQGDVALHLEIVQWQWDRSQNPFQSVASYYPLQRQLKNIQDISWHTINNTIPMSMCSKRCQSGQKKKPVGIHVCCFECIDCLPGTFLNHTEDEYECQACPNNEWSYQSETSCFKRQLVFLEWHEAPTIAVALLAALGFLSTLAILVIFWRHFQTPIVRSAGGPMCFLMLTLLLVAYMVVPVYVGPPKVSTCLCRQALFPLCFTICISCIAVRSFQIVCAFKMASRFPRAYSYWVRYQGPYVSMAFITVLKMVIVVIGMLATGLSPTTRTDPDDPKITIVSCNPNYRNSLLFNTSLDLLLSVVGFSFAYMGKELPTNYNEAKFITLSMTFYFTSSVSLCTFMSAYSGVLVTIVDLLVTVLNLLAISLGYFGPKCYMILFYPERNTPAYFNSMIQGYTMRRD
T1 sequence (Q7RTX0 21-852 M110T): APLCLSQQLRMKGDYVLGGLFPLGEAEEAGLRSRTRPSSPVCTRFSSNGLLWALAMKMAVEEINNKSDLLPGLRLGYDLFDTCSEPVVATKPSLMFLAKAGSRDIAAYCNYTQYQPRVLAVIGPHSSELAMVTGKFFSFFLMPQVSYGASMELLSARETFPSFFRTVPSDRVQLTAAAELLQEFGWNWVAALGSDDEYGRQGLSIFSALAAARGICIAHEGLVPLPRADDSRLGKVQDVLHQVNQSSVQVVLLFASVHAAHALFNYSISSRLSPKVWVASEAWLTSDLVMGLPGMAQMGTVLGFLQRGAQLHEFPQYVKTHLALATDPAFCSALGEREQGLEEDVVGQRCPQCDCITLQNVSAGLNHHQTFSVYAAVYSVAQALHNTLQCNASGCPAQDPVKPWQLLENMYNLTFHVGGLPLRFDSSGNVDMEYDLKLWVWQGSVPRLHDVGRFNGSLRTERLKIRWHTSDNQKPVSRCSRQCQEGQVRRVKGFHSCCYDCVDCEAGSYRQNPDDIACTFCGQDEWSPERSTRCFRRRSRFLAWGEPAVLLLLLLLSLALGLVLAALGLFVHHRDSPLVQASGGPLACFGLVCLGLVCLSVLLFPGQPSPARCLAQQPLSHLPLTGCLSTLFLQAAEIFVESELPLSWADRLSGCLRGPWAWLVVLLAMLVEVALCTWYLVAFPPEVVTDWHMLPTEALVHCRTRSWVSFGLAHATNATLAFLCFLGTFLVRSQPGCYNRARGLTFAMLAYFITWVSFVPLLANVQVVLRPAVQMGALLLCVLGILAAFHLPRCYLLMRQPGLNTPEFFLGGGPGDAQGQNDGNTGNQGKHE


Target: T1, human TAS1R2-WT/TAS1R3-M110T
Assay: Calcium mobilisation assay, TAS1R2-WT with TAS1R3 variant M110T
Assay type: cell-based
Settings: for Max ΔF/F0: maximal signal amplitude
From the text: The coding sequences for TAS1R2 and TAS1R3 were commercially synthesised, and the human codon was optimised for expression in human cells. The coding sequences of human TAS1R2 and TAS1R3 were subcloned and inserted into the mammalian expression vectors pcDNA6/myc-HisA and pcDNA4/myc-HisA (Invitrogen; Thermo Fisher Scientific; Illkirch, France) between the EcoRI and NotI restriction sites, generating the plasmids pcDNA6-TAS1R2 and pcDNA4-TAS1R3, respectively. To increase protein expression in mammalian cells, an upstream start codon was used, which was a sequence called MAX, corresponding to the QBI SP163 element also described in pcDNA4-HisMax (Invitrogen; Thermo Fisher Scientific; Illkirch, France). To measure the expression level of the receptor by immunohistochemistry, we used the FLAG sequence ([…]) in the C-terminal position, which encodes the FLAG tag epitope. SNP variants of TAS1R2 and TAS1R3 were constructed based on […], respectively, using site-directed mutagenesis (Genewiz; Leipzig, Germany).
The HEK293T cells were kindly provided by Jay P. Slack (Givaudan Flavors Corporation; Cincinnati, OH, USA). HEK293T cells stably transfected with Gα16gust44 [43, 67] were seeded in poly-D-lysine-coated clear-bottom black 96-well plates (0.35 × 10^5 cells/well) in high-glucose DMEM supplemented with 2 mM GlutaMAX, 10% dialysed foetal bovine serum with penicillin/streptomycin and G418 (400 μg/mL) at 37 °C and 6.3% CO2 in a humidified atmosphere as previously reported. […] As a negative control, HEK293T cells were mock-transfected with the empty expression vector. After a further 24 h of incubation, the HEK293T cells were washed with C1 buffer (130 mM NaCl, 5 mM KCl, 10 mM HEPES pH 7.4 and 2 mM CaCl2). The 96-well plates containing the cells were then stimulated with sweet-tasting compounds. […] Different concentration ranges were tested depending on the sweet compound injected. The Ca^2+ changes were expressed as fractional changes in fluorescent light intensity: ΔF/F = (F − F0)/F0, where F was the fluorescent light intensity at each point, and F0 was the value of emitted fluorescent light prior to stimulus application. To calculate dose–response relationships, the changes in fluorescence upon stimulus application were averaged, mock-subtracted and baseline-corrected. The dose–response data obtained were adjusted using a 4-parameter logistic equation. The half-maximal effective concentrations (EC50 values) and maximal signal amplitudes were calculated using SigmaPlot software (version 15.0) (Systat Software; San Jose, CA, USA).
For in vitro calcium mobilisation assay performed on hTAS1R2-SNPs, hTAS1R3-SNPs and mTAS1R3-I60T, 6 to 7 concentrations were tested for each sweet compound, plus buffer alone. All concentration–receptor combinations were measured in duplicate, and each experiment was repeated at least 4 times (8 wells/concentration). Results were expressed for each concentration as ΔF/F mean ± SEM and represented as dose–response curves.

Molecule | R1 = Variant EC50/WT EC50 | Max ΔF/F0 | EC50 (read-out: EC50) | EC50 (brazzein)
OC[C@H]1O[C@H](O[C@]2(CCl)O[C@H](CCl)[C@@H](O)[C@@H]2O)[C@H](O)[C@@H](O)[C@H]1Cl [Sucralose] | 2.6 | 0.11 ± 0.02 | 282 ± 101 µM | –
C[C@H](CC[C@@H](O[C@@H]1O[C@H](CO[C@@H]2O[C@H](CO)[C@@H](O)[C@H](O)[C@H]2O)[C@@H](O)[C@H](O)[C@H]1O[C@@H]1O[C@H](CO)[C@@H](O)[C@H](O)[C@H]1O)C(C)(C)O)[C@H]1CC[C@@]2(C)[C@@H]3CC=C4[C@@H](CC[C@H](O[C@@H]5O[C@H](CO[C@@H]6O[C@H](CO)[C@@H](O)[C@H](O)[C@H]6O)[C@@H](O)[C@H](O)[C@H]5O)C4(C)C)[C@]3(C)[C@H](O)C[C@]12C [Mogroside V, mogroside V] | 3.0 | 0.43 ± 0.02 | 94.5 ± 8.4 µM | –
COC(=O)[C@H](Cc1ccccc1)NC(=O)[C@H](CC(=O)O)NCCC(C)(C)C [Neotame] | 2.2 | 0.19 ± 0.01 | 2.7 ± 0.29 µM | –
brazzein (QDKCKKVYENYPVSKCQLANQCNYDCKLDKHARSGECFYDEKRNLQCICDYCEY; ends and bridges not checked; cysteine pairing not given here; UniProt P56552 1-54, looked up) [sweet-tasting protein obtained by recombinant production using the yeast Pichia pastoris] | 2.0 | 0.68 ± 0.01 | – | 221.5 ± 11.3 µg/mL
C=C(C)[C@@H]1CC=C(/C=N/O)CC1 [Perillartine, perillartine] | 3.0 | 1.31 ± 0.21 | 41.1 ± 19.4 µM | –
CC1=CC(=O)NS(=O)(=O)O1 [Acesulfame K, acesulfame K] | 1.7 | 0.20 ± 0.01 | 1060 ± 648 µM | –
C=C1C[C@@]23CC[C@H]4[C@@](C)(CCC[C@@]4(C)C(=O)O[C@@H]4O[C@H](CO)[C@@H](O)[C@H](O[C@@H]5O[C@H](CO)[C@@H](O)[C@H](O)[C@H]5O)[C@H]4O[C@@H]4O[C@H](CO)[C@@H](O)[C@H](O)[C@H]4O)[C@@H]2CC[C@]1(O[C@@H]1O[C@H](CO)[C@@H](O)[C@H](O[C@@H]2O[C@H](CO)[C@@H](O)[C@H](O)[C@H]2O)[C@H]1O[C@@H]1O[C@H](CO)[C@@H](O)[C@H](O)[C@H]1O)C3 [Rebaudioside M, rebaudioside M] | 2.6 | 0.38 ± 0.04 | 103 ± 18 µM | –
O=S(=O)(O)NC1CCCCC1 [Cyclamate, cyclamate] | – | – | 2620 ± 98 µM | –
COc1ccc(CCC(=O)c2c(O)cc(O[C@@H]3O[C@H](CO)[C@@H](O)[C@H](O)[C@H]3O[C@@H]3O[C@@H](C)[C@H](O)[C@@H](O)[C@H]3O)cc2O)cc1O [NHDC, neohesperidin dihydrochalcone] | 4.0 | 0.48 ± 0.02 | 203 ± 17.1 µM | –
thaumatin | 1.6 | 0.38 ± 0.01 | – | –
thaumatin (protein, Eight disulfides, sweet-tasting plant protein, E957) ATFEIVNRCSYTVWAAASKGDAALDAGGRQLNSGESWTINVEPGTKGGKIWARTDCYFDDSGSGICKTGDCGGLLRCKRFGRPPTTLAEFSLNQYGKDYIDISNIKGFNVPMDFSPTTRGCRGVRCAADIVGQCPAKLKAPGGGCNDACTVFQTSEYCCTTGKCGPTEYSRFFKRLCPDAFSYVLDKPTTVTCPGSSNYRVTFCPTA | – | – | 16.3 ± 0.9 µM | –
